Experiments:
[1] = Compatibility Test B: mixtures of single borate esters with Fungicide I; format: physicochemical; details: for appearance during mixing / separation or precipitation after mixing: borate ester mixed with Fungicide I (TBGB, HGB 10%); for overall stability of mixture with Fungicide I: conclusion from the observations; for collapse of closed container (moisture drawn from air): mixture with Fungicide I in closed container, TBGB a week, THGB 18 days
From the text: A mixture of Fungicide I and a 10% tributylene glycol biborate (TBGB) was made by pouring the TBGB into the Fungicide I. The following observations were made while making and after making the mixture.
The TBGB reacted with moisture in the air while pouring and formed a thin white film over the pour stream. […] This behavior was duplicated by opening the container and allowing it to come back to its normal shape and closing the container again. It is noted that TBGB in a fungicide mixture when open to the air will draw moisture from the air and hydrolyze to a form insolubles and result in an increase in the separated phase. The hazing during mixing and phase separation seen during the first test was identical to that observed during this mixing.
The TBGB test was repeated using a mixture of 10% hexylene glycol biborate (HGB). The mixture was made by pouring the HGB into the Fungicide I composition. The following observations were made while making and after making the mixture:
The container was closed. The crystalline material is soluble in water and isopropyl alcohol. A 10% HGB/mineral spirits solution was made to test for moisture adsorption from the air. […] The crystalline material is likely the hydroxy hexylene glycol borate compound formed by hydrolysis of the anhydride bond. The crystal formation in the HGB testing is similar to that observed in the first test in the test mixture storage drum.
The basic observations are that both the TBGB and HGB react with various components of the Fungicide I mixture and react with moisture in the air.
A mixture of tri hexylene glycol biborate (THGB) and Fungicide I was made. It was observed that the solution remains clear with no separation. Next, the mixture was left open to atmosphere for 90 days at 40% to 50% relative humidity conditions. […] A 10% evaporative loss of mineral spirits approximately every 14 days was replaced with new mineral spirits without any negative effects. […] The mixture was placed in a 0° F. freezer overnight. […] The mixture was placed in a 42° F. refrigerator for 63 hours.

[2] = cited from earlier work

Row | SMILES | appearance during mixing [1] | separation or precipitation after mixing [1] | overall stability of mixture with Fungicide I [1] | collapse of closed container (moisture drawn from air) [1] | appearance of solution, container closed ([1]; 10% HGB/mineral spirits solution, container closed) | appearance of solution, container open to air ([1]; 10% HGB/mineral spirits solution, opened to air, over night) | redissolution on heating ([1]; after freezer, heated to approximately 20 F with stirring) | appearance after open storage ([1]; mixture with Fungicide I left open to atmosphere 90 days, 40% to 50% relative humidity) | appearance after freezer storage ([1]; mixture with Fungicide I, 0° F. freezer overnight) | appearance after refrigerator storage ([1]; mixture with Fungicide I, 42° F. refrigerator, 63 hours) | maximum boron concentration of saturated aqueous solution [2]
1 | CC1CCOB(OCCC(C)OB2OCCC(C)O2)O1 (stereo not drawn) [TBGB, tributylene glycol biborate] | immediately became hazy | brownish/red colored layer immediately began to form at the bottom of the container | too reactive to form stable mixtures | collapse slightly after a week | – | – | – | – | – | – | –
2 | CC1CC(C)(C)OB(OB2OC(C)CC(C)(C)O2)O1 (stereo not drawn) [HGB, hexylene glycol biborate] | remained clear during mixing | opaque white crystalline material immediately formed on the container surfaces | too reactive to form stable mixtures | – | remained clear without separation or solid precipitation | white crystal formation | – | – | – | – | –
3 | CC1CC(C)(C)OB(OC(C)CC(C)(C)OB2OC(C)CC(C)(C)O2)O1 (stereo not drawn) [THGB, tri hexylene glycol biborate] | remains clear | no separation | produces stable mixtures | without any collapse | – | – | dissolved all of the white solids | remained clear with no separation and no precipitation of solids | white solids were observed at the bottom of the container | remained clear without separation or precipitation | –
4 | OB(O)O [boric acid] | – | – | – | – | – | – | – | – | – | – | no more than one

Reference: patent publication US7816343B2, “Wood preservative composition” (HWD Acquisition, Inc., priority 2007, dated 2010)
